Test results from patent US20260305610A1, “TRIAZOLE COMPOUND, AND PREPARATION METHOD THEREFOR, HERBICIDAL COMPOSITION AND USE THEREOF” (QINGDAO KINGAGROOT CHEMICAL COMPOUND CO., LTD., priority 2023, published 2026).

Assays:
major crops = test: Pre-emergence test experiment (crops); assay type: in vivo; set-up: key: 9: completely dead; 8: growth control rate is greater than or equal to 90% and less than 100%; 7: growth control rate is greater than or equal to 80% and less than 90%; 6: growth control rate is greater than or equal to 70% and less than 80%; growth control rate is greater than or equal to 50% and less than 70%; 4: growth control rate is greater than or equal to 30% and less than 50%; growth control rate is greater than or equal to 20% and less than 30%; growth control rate is greater than or equal to 10% and less than 20%; growth control rate is less than 10%; 0: no effect; conditions: 30 g a.i./ha
[1] = tested on: monocotyledonous and dicotyledonous weeds; test: Pre-emergence test experiment (weeds); assay type: in vivo; set-up: key: 9: completely dead; 8: growth control rate is greater than or equal to 90% and less than 100%; 7: growth control rate is greater than or equal to 80% and less than 90%; 6: growth control rate is greater than or equal to 70% and less than 80%; growth control rate is greater than or equal to 50% and less than 70%; 4: growth control rate is greater than or equal to 30% and less than 50%; growth control rate is greater than or equal to 20% and less than 30%; growth control rate is greater than or equal to 10% and less than 20%; growth control rate is less than 10%; 0: no effect; conditions: 30 g a.i./ha

| Structure (SMILES) | Pre-emergence plant damage level (growth control rate) on Corn (major crops) | Pre-emergence plant damage level (growth control rate) on Cotton (major crops) | Pre-emergence plant damage level (growth control rate) on Soybean (major crops) | Pre-emergence activity level (growth control rate) on Amaranthus retroflexus [1] | Pre-emergence activity level (growth control rate) on Descurainia sophia [1] | Pre-emergence activity level (growth control rate) on Digitaria sanguinalis [1] | Pre-emergence activity level (growth control rate) on Setaria viridis [1] | Pre-emergence activity level (growth control rate) on Solanum nigrum [1] | Pre-emergence activity level (growth control rate) on Veronica [1] |
| --- | --- | --- | --- | --- | --- | --- | --- | --- | --- |
| Cc1ccc(-n2cnc(C(F)(F)F)n2)nc1Oc1ccc(F)c(OC(F)(F)F)c1 [Compound 66] | 0 | 0 | 0 | 9 | 9 | 9 | 9 | 9 | 9 |
| COc1cc(Oc2cccc(OC(F)(F)F)c2)nc(-n2cnc(C(F)(F)F)n2)c1 [Compound 78] | 0 | 0 | 0 | 9 | 9 | 9 | 8 (growth control rate is greater than or equal to 90% and less than 100%) | 8 (growth control rate is greater than or equal to 90% and less than 100%) | 9 |
| CCc1ccc(-n2cnc(C(F)(F)F)n2)nc1Oc1ccc(F)c(OC(F)F)c1 [Compound 132] | 0 | 0 | 0 | 9 | 9 | 9 | 9 | 9 | 9 |
| CCc1ccc(-n2cnc(C(F)F)n2)nc1Oc1cncc(C(F)(F)F)c1 [Compound 74] | 0 | 0 | 0 | 9 | 9 | 9 | 8 (growth control rate is greater than or equal to 90% and less than 100%) | 9 | 9 |
| Cc1ccc(-n2cnc(C(F)(F)F)n2)nc1Oc1cccc(OC(F)F)c1 [Compound 43] | 0 | 0 | 0 | 9 | 9 | 9 | 8 (growth control rate is greater than or equal to 90% and less than 100%) | 7 (growth control rate is greater than or equal to 80% and less than 90%) | 9 |
| COCc1ccc(-n2cnc(C(F)(F)F)n2)nc1Oc1cccc(OC(F)F)c1 [Compound 148] | 0 | 0 | 0 | 9 | 9 | 8 (growth control rate is greater than or equal to 90% and less than 100%) | 9 | 9 | 9 |
| Cc1cc(Oc2cncc(C(F)(F)F)c2)nc(-n2cnc(C(F)(F)F)n2)c1 [Compound 6] | 0 | 0 | 0 | 9 | 9 | 9 | 9 | 9 | 9 |
| CCc1ccc(-n2cnc(C(F)F)n2)nc1Oc1cccc(OC(F)(F)F)c1 [Compound 73] | 0 | 0 | 0 | 9 | 9 | 8 (growth control rate is greater than or equal to 90% and less than 100%) | 8 (growth control rate is greater than or equal to 90% and less than 100%) | 9 | 9 |
| COCc1ccc(-n2cnc(C(F)(F)C(F)(F)F)n2)nc1Oc1cncc(C(F)(F)F)c1 [Compound 140] | 0 | 0 | 0 |  | 9 | 8 (growth control rate is greater than or equal to 90% and less than 100%) | 9 | 9 | 9 |
| CCc1ccc(-n2cnc(C(F)(F)F)n2)nc1Oc1cccc(OC(F)(F)F)c1 [Compound 71] | 0 | 0 | 0 | 9 | 9 | 9 | 9 | 9 | 9 |
| COCc1ccc(-n2cnc(C(F)(F)C(F)(F)F)n2)nc1Oc1cccc(OC(F)(F)F)c1 [Compound 77] | 0 | 0 | 0 | 9 | 9 | 8 (growth control rate is greater than or equal to 90% and less than 100%) | 8 (growth control rate is greater than or equal to 90% and less than 100%) | 7 (growth control rate is greater than or equal to 80% and less than 90%) | 9 |
| COc1cc(Oc2cccc(OC(F)(F)F)c2)nc(-n2cnc(C(F)F)n2)c1 [Compound 67] | 0 | 0 | 0 | 9 | 9 | 7 (growth control rate is greater than or equal to 80% and less than 90%) | 7 (growth control rate is greater than or equal to 80% and less than 90%) |  | 9 |
| Cc1ccc(-n2cnc(C(F)(F)F)n2)nc1Oc1ccc(F)c(OC(F)F)c1 [Compound 75] | 0 | 0 | 0 | 9 | 9 | 9 | 9 | 9 | 9 |
| CCc1ccc(-n2cnc(C(F)(F)F)n2)nc1Oc1ccc(F)c(C(F)(F)F)c1 [Compound 135] | 0 | 0 | 0 | 9 | 9 | 9 | 9 | 9 | 9 |
